Patent US20100099561A1, “HETEROBICYCLIC ALKYLTHIO-BRIDGED ISOXAZOLINES” (E.I. DU PONT DE NEMOURS AND COMPANY, priority 2008, published 2010)

Assays:
Type in all cases: in vivo
[1] = system: large crabgrass (Digitaria sanguinalis); test: Test A postemergence, large crabgrass; settings: 0 to 100 scale (0 no effect, 100 complete control)
From the text: (§1) Seeds of barnyardgrass (Echinochloa crus-galli), large crabgrass (Digitaria sanguinalis), giant foxtail (Setaria faberi), morningglory (Ipomoea spp.), pigweed (Amaranthus retroflexus), velvetleaf (Abutilon theophrasti), wheat (Triticum aestivum), and corn (Zea mays) were planted into a blend of loam soil and sand and treated preemergence with a directed soil spray using test chemicals formulated in a non-phytotoxic solvent mixture which included a surfactant. At the same time these species were also treated with postemergence applications of test compounds formulated in the same manner. Plants ranged in height from two to ten cm and were in the one- to two-leaf stage for the postemergence treatment. Treated plants and untreated controls were maintained in a greenhouse for approximately ten days, after which time all treated plants were compared to untreated controls and visually evaluated for injury. Plant response ratings, summarized in Table A, are based on a 0 to 100 scale where 0 is no effect and 100 is complete control. A dash (-) response means no test result.

[2] = system: umbrella sedge (Cyperus difformis); test: Test B flooded paddy test, umbrella sedge; settings: Flood, scale 0 to 100
From the text: (§2) Plant species in the flooded paddy test consisted of rice (Oryza sativa), umbrella sedge (Cyperus difformis), ducksalad (Heteranthera limosa) and barnyardgrass (Echinochloa crus-galli) grown to the 2-leaf stage for testing. At time of treatment, test pots were flooded to 3 cm above the soil surface, treated by application of test compounds directly to the paddy water, and then maintained at that water depth for the duration of the test. Treated plants and controls were maintained in a greenhouse for 13 to 15 days, after which time all species were compared to controls and visually evaluated. Plant response ratings, summarized in Table B, are based on a scale of 0 to 100 where 0 is no effect and 100 is complete control. A dash (-) response means no test result.

[3] = system: wheat (Triticum aestivum); test: Test A preemergence, wheat; settings: 0 to 100 scale (0 no effect, 100 complete control)
From the text: as §1

[4] = system: giant foxtail (Setaria faberi); test: Test A postemergence, giant foxtail; settings: 0 to 100 scale (0 no effect, 100 complete control)
From the text: as §1

[5] = system: pigweed (Amaranthus retroflexus); test: Test A postemergence, pigweed; settings: 0 to 100 scale (0 no effect, 100 complete control)
From the text: as §1

[6] = system: velvetleaf (Abutilon theophrasti); test: Test A postemergence, velvetleaf; settings: 0 to 100 scale (0 no effect, 100 complete control)
From the text: as §1

[7] = system: large crabgrass (Digitaria sanguinalis); test: Test A preemergence, large crabgrass; settings: 0 to 100 scale (0 no effect, 100 complete control)
From the text: as §1

[8] = system: morningglory (Ipomoea spp.); test: Test A preemergence, morningglory; settings: 0 to 100 scale (0 no effect, 100 complete control)
From the text: as §1

[9] = system: wheat (Triticum aestivum); test: Test A postemergence, wheat; settings: 0 to 100 scale (0 no effect, 100 complete control)
From the text: as §1

[10] = system: ducksalad (Heteranthera limosa); test: Test B flooded paddy test, ducksalad; settings: Flood, scale 0 to 100
From the text: as §2

[11] = system: velvetleaf (Abutilon theophrasti); test: Test A preemergence, velvetleaf; settings: 0 to 100 scale (0 no effect, 100 complete control)
From the text: as §1

[12] = system: morningglory (Ipomoea spp.); test: Test A postemergence, morningglory; settings: 0 to 100 scale (0 no effect, 100 complete control)
From the text: as §1

[13] = system: barnyardgrass (Echinochloa crus-galli); test: Test B flooded paddy test, barnyardgrass; settings: Flood
From the text: as §2

rice (Oryza sativa) = test: Test B flooded paddy test, rice; settings: Flood, scale 0 to 100
From the text: as §2

[14] = system: pigweed (Amaranthus retroflexus); test: Test A preemergence, pigweed; settings: 0 to 100 scale (0 no effect, 100 complete control)
From the text: as §1

[15] = system: barnyardgrass (Echinochloa crus-galli); test: Test A postemergence, barnyardgrass; settings: 0 to 100 scale (0 no effect, 100 complete control)
From the text: as §1

corn (Zea mays) [16] = test: Test A postemergence, corn; settings: 0 to 100 scale (0 no effect, 100 complete control)
From the text: as §1

[17] = system: giant foxtail (Setaria faberi); test: Test A preemergence, giant foxtail; settings: 0 to 100 scale (0 no effect, 100 complete control)
From the text: as §1

corn (Zea mays) [18] = test: Test A preemergence, corn; settings: 0 to 100 scale (0 no effect, 100 complete control)
From the text: as §1

[19] = system: barnyardgrass (Echinochloa crus-galli); test: Test A preemergence, barnyardgrass; settings: 0 to 100 scale (0 no effect, 100 complete control)
From the text: as §1

Q: What does the source list for CC1(C)CC([S+]([O-])Cc2c(C(F)(F)F)nc3n(c2=O)CCS3)=NO1 (centres unmarked) [Compound 5]?
A: Plant response rating, Crabgrass, Large ([1]; 125 g ai/ha): 10; Plant response rating, Crabgrass, Large ([1]; 500 g ai/ha): 70; Plant response rating, Sedge, Umbrella ([2]; 62 g ai/ha): 0; Plant response rating, Sedge, Umbrella ([2]; 250 g ai/ha): 45; Plant response rating, Wheat ([3]; 125 g ai/ha): 0; Plant response rating, Wheat ([3]; 500 g ai/ha): 0; Plant response rating, Foxtail, Giant ([4]; 125 g ai/ha): 40; Plant response rating, Foxtail, Giant ([4]; 500 g ai/ha): 70; Plant response rating, Pigweed ([5]; 125 g ai/ha): 0; Plant response rating, Pigweed ([5]; 500 g ai/ha): 10; Plant response rating, Velvetleaf ([6]; 125 g ai/ha): 0; Plant response rating, Velvetleaf ([6]; 500 g ai/ha): 40; Plant response rating, Crabgrass, Large ([7]; 125 g ai/ha): 40; Plant response rating, Crabgrass, Large ([7]; 500 g ai/ha): 80; Plant response rating, Morningglory ([8]; 125 g ai/ha): 0; Plant response rating, Morningglory ([8]; 500 g ai/ha): 0; Plant response rating, Wheat ([9]; 125 g ai/ha): 0; Plant response rating, Wheat ([9]; 500 g ai/ha): 0; Plant response rating, Ducksalad ([10]; 62 g ai/ha): 0; Plant response rating, Ducksalad ([10]; 250 g ai/ha): 20; Plant response rating, Velvetleaf ([11]; 125 g ai/ha): 0; Plant response rating, Velvetleaf ([11]; 500 g ai/ha): 0; Plant response rating, Morningglory ([12]; 125 g ai/ha): 0; Plant response rating, Morningglory ([12]; 500 g ai/ha): 0; Plant response rating, Barnyardgrass ([13]; 62 g ai/ha, scale 0 to 100): 10; Plant response rating, Barnyardgrass ([13]; 250 g ai/ha, scale 0 to 100 (0 no effect, 100 complete control)): 30; Plant response rating, Rice (rice (Oryza sativa); 62 g ai/ha): 0; Plant response rating, Rice (rice (Oryza sativa); 250 g ai/ha): 0; Plant response rating, Pigweed ([14]; 125 g ai/ha): 40; Plant response rating, Pigweed ([14]; 500 g ai/ha): 60; Plant response rating, Barnyardgrass ([15]; 125 g ai/ha): 30; Plant response rating, Barnyardgrass ([15]; 500 g ai/ha): 60; Plant response rating, Corn (corn (Zea mays) [16]; 125 g ai/ha): 0; Plant response rating, Corn (corn (Zea mays) [16]; 500 g ai/ha): 30; Plant response rating, Foxtail, Giant ([17]; 125 g ai/ha): 30; Plant response rating, Foxtail, Giant ([17]; 500 g ai/ha): 80; Plant response rating, Corn (corn (Zea mays) [18]; 125 g ai/ha): 0; Plant response rating, Corn (corn (Zea mays) [18]; 500 g ai/ha): 0; Plant response rating, Barnyardgrass ([19]; 125 g ai/ha): 0; Plant response rating, Barnyardgrass ([19]; 500 g ai/ha): 70

Q: For CC1(C)CC(SCc2c(C(F)(F)F)nc3n(c2=O)CCC3)=NO1 [Compound 9, 3-[[(4,5-dihydro-5,5-dimethyl-3-isoxazolyl)thio]methyl]-7,8-dihydro-2-(trifluoromethyl)pyrrolo[1,2-α]pyrimidin-4(6H)-one], which “Plant response rating, Crabgrass, Large” value ([1]; 1000 g ai/ha) is on record?
A: The value was 0.

Q: And the “Plant response rating, Wheat” value ([3]; 1000 g ai/ha)?
A: Its value is 0.

Q: And the “Plant response rating, Foxtail, Giant” value ([4]; 1000 g ai/ha)?
A: The value was 0.

Q: What about the “Plant response rating, Pigweed” value ([5]; 1000 g ai/ha) of the same compound?
A: Its value is 10.

Q: What about the “Plant response rating, Velvetleaf” value ([6]; 1000 g ai/ha) of the same compound?
A: The value was 10.

Q: What about the “Plant response rating, Crabgrass, Large” value ([7]; 1000 g ai/ha) of the same compound?
A: The value was 0.

Q: What about the “Plant response rating, Morningglory” value ([8]; 1000 g ai/ha) of the same compound?
A: Its value is 0.

Q: What about the “Plant response rating, Wheat” value ([9]; 1000 g ai/ha) of the same compound?
A: The value was 0.

Q: What about the “Plant response rating, Velvetleaf” value ([11]; 1000 g ai/ha) of the same compound?
A: Its value is 0.

Q: What about the “Plant response rating, Morningglory” value ([12]; 1000 g ai/ha) of the same compound?
A: Its value is 30.

Q: What about the “Plant response rating, Pigweed” value ([14]; 1000 g ai/ha) of the same compound?
A: Its value is 0.

Q: And the “Plant response rating, Barnyardgrass” value ([15]; 1000 g ai/ha)?
A: Its value is 0.

Q: And the “Plant response rating, Corn” value (corn (Zea mays) [16]; 1000 g ai/ha)?
A: The value was 0.

Q: What about the “Plant response rating, Foxtail, Giant” value ([17]; 1000 g ai/ha) of the same compound?
A: Its value is 0.

Q: What about the “Plant response rating, Corn” value (corn (Zea mays) [18]; 1000 g ai/ha) of the same compound?
A: Its value is 0.

Q: And the “Plant response rating, Barnyardgrass” value ([19]; 1000 g ai/ha)?
A: The value was 0.
